Results published in patent publication US10626368B2, “Method for inducing cerebral cortex neurons” (KYOTO UNIVERSITY, priority 2015, dated 2020).

Assays:
Format in all cases: cell-based, human
iPS cells (836B1) = assay: Immunostaining for CoupTF1 and Ctip2 on day 46, suspension culture with various WNT inhibitors (Example 4); settings: 50 nM C59, 100 nM LGK-974, 1 μM ICG-001, day 46; C59 and LGK-974 compared with each other
Description: On the day before induction of differentiation, in order to separate the iPS cells (836B1), which had been cultured in a culture medium to which 10 μM Y-27632 had been added, from the SNL feeder cells, the SNL cells were removed with CTK and the remaining cells were then dissociated using Accumax. The cells were transferred on a 96-well plate (Lipidure-coat 96-well plate) in an amount of 9×10^3 cells per well. Thereafter, the cells were subjected to a suspension culture in DMEM/F12 comprising 50 μM Y-27632, 10 μM SB43152, 10 ng/ml bFGF, various types of Wnt inhibitors (50 nM C59, 100 nM LGK-974, or 1 μM ICG-001 (Cellagen Technology)), 100 nM LDN193189, 10% KSR, 0.1 mM MEM non-essential amino acid, 0.1 mM 2-mercaptoethanol, and 2 mM L-Gln (initiation of differentiation induction, day 0). […] Three days later, the medium was exchanged with DMEM/F12 comprising various types of WNT inhibitors (C59, LGK-974, or ICG-001), 100 nM LDN193189, 10% KSR, 0.1 mM MEM non-essential amino acid, 0.1 mM 2-mercaptoethanol, and 2 mM L-Gln (day 6). Thereafter, the medium was exchanged with a fresh one of the same type every 3 days, and the culture was carried out for 18 days after the initiation of differentiation induction (day 18).
A half of the medium on day 18 was removed by aspiration, and thereafter, Neurobasal, to which B27, 2 mM L-Gln, and 10 units/ml penicillin and streptomycin had been added, was added in the same amount as the removed medium to the remaining medium. Likewise, a half amount of the medium was exchanged on day 21. On day 24, the cells were transferred on a petri dish, and thereafter, a half of the medium was exchanged every 3 or 4 days. On day 46, the obtained cells were immunostained using antibodies against CoupTF1 and Ctip2. […] From the aforementioned results, it was confirmed that nerve cells existing in the desired corticocerebral motor area can be induced even by utilizing the WNT inhibitor LGK-974 having a similar action to C59.

[1] = system: ES cells or the iPS cells; assay: Cell death / cytotoxicity in spheres on the 18th day of the culture; settings: 2 μM LDN193189, 18th day of the culture
Description: On the day before induction of differentiation, in order to separate the ES cells or the iPS cells, which had been cultured in a culture medium to which 10 μM Y-27632 (WAKO) had been added, from the SNL feeder cells, the SNL cells were removed with CTK and the remaining cells were then dissociated using Accumax (ICT). The cells were transferred on a 96-well plate (Lipidure-coat 96-well plate (NOF Corporation)) in an amount of 9×10^3 cells per well. Thereafter, the cells were subjected to a suspension culture in DMEM/F12 (WAKO) comprising 50 μM Y-27632 (WAKO), 10 μM SB43152 (Sigma), 10 ng/ml bFGF (Invitrogen), various types of Wnt inhibitors (DKK1 (R & D, 500 ng/ml), C59 (Cellagen Technology, 2-10 nM), XAV (Stemgent, 500 nM-2 μM) or IWP4 (Stemgent, 500 nM-2.5 μM)), LDN193189 (Stemgent), KSR (Invitrogen), 0.1 mM MEM non-essential amino acid (Invitrogen), 0.1 mM 2-mercaptoethanol (WAKO), and 2 mM L-Gln (Invitrogen) (initiation of differentiation induction, day 0). […] Three days later, the medium was exchanged with DMEM/F12 (WAKO) comprising various types of Wnt inhibitors (DKK1, C59, XAV or IWP4 (Stemgent)), LDN193189 (Stemgent), KSR (Invitrogen), 0.1 mM MEM non-essential amino acid (Invitrogen), 0.1 mM 2-mercaptoethanol (WAKO), and 2 mM L-Gln (Invitrogen) (day 6). […]

[2] = system: ES cells or the iPS cells; assay: Immunostaining for CoupTF1 and Ctip2 after 46 days of cerebral cortex differentiation
Excerpt: (§1) Human ES cells (KhES-1) were obtained from Institute for Frontier Medical Sciences, Kyoto University (Suemori H, et al. Biochem Biophys Res Commun. 345: 926-32, 2006). The human iPS cells 404C2 are cells obtained by introducing Oct3/4, Sox2, Klf4, L-MYC, LIN28 and p53shRNA into human fibroblasts, using an episomal vector, and these cells were obtained from Professor Yamanaka et al. in Kyoto University (Okita, et al, Nat Methods. 8: 409-412, 2011). The human iPS cells 836B1 are cells obtained by introducing Oct3/4, Sox2, Klf4, L-MYC, LIN28, GLIS1 and p53shRNA into human fibroblasts, using an episomal vector, and these cells were obtained from Professor Yamanaka et al. in Kyoto University. The ES cells and the iPS cells were cultured on SNL cells (Takahashi K, et al, Cell. 131: 861-872, 2007).
On the day before induction of differentiation, in order to separate the ES cells or the iPS cells, which had been cultured in a culture medium to which 10 μM Y-27632 (WAKO) had been added, from the SNL feeder cells, the SNL cells were removed with CTK and the remaining cells were then dissociated using Accumax (ICT). The cells were transferred on a 96-well plate (Lipidure-coat 96-well plate (NOF Corporation)) in an amount of 9×10^3 cells per well. Thereafter, the cells were subjected to a suspension culture in DMEM/F12 (WAKO) comprising 50 μM Y-27632 (WAKO), 10 μM SB43152 (Sigma), 10 ng/ml bFGF (Invitrogen), various types of Wnt inhibitors (DKK1 (R & D, 500 ng/ml), C59 (Cellagen Technology, 2-10 nM), XAV (Stemgent, 500 nM-2 μM) or IWP4 (Stemgent, 500 nM-2.5 μM)), LDN193189 (Stemgent), KSR (Invitrogen), 0.1 mM MEM non-essential amino acid (Invitrogen), 0.1 mM 2-mercaptoethanol (WAKO), and 2 mM L-Gln (Invitrogen) (initiation of differentiation induction, day 0). […]
The concentration of LDN193189 used in the above-described induction method was examined. […] Furthermore, the expression levels of the CoupTF1 and Sfrp1 genes were measured according to a qPCR method (FIG. 5C). […]

[3] = system: ES cells or the iPS cells; assay: qPCR of marker gene expression in cells differentiated with added inhibitors
Excerpt: as §1
On the day before induction of differentiation, in order to separate the ES cells or the iPS cells, which had been cultured in a culture medium to which 10 μM Y-27632 (WAKO) had been added, from the SNL feeder cells, the SNL cells were removed with CTK and the remaining cells were then dissociated using Accumax (ICT). The cells were transferred on a 96-well plate (Lipidure-coat 96-well plate (NOF Corporation)) in an amount of 9×10^3 cells per well. Thereafter, the cells were subjected to a suspension culture in DMEM/F12 (WAKO) comprising 50 μM Y-27632 (WAKO), 10 μM SB43152 (Sigma), 10 ng/ml bFGF (Invitrogen), various types of Wnt inhibitors (DKK1 (R & D, 500 ng/ml), C59 (Cellagen Technology, 2-10 nM), XAV (Stemgent, 500 nM-2 μM) or IWP4 (Stemgent, 500 nM-2.5 μM)), LDN193189 (Stemgent), KSR (Invitrogen), 0.1 mM MEM non-essential amino acid (Invitrogen), 0.1 mM 2-mercaptoethanol (WAKO), and 2 mM L-Gln (Invitrogen) (initiation of differentiation induction, day 0). […] Three days later, the medium was exchanged with DMEM/F12 (WAKO) comprising various types of Wnt inhibitors (DKK1, C59, XAV or IWP4 (Stemgent)), LDN193189 (Stemgent), KSR (Invitrogen), 0.1 mM MEM non-essential amino acid (Invitrogen), 0.1 mM 2-mercaptoethanol (WAKO), and 2 mM L-Gln (Invitrogen) (day 6). Thereafter, the medium was exchanged with a fresh one of the same type every 3 days, and the culture was carried out for 18 days after the initiation of differentiation induction (day 18).
The obtained cell mass was transferred on a dish (24-well plate (BD)) coated with 50 μg/ml ornithine (Sigma), 5 μg/ml laminin (Sigma) and 5 μg/ml fibronectin (BD Bioscience Pharmingen), and the culture was continued in Neurobasal (Invitrogen), to which B27 (Invitrogen), 2 mM L-Gln, and 10 units/ml penicillin and streptomycin (Invitrogen) had been added. The culture was carried out for, at maximum, 46 days after the initiation of differentiation induction. It is to be noted that the medium was exchanged with a fresh one every 2 or 3 days.
In the above-described induction method, 500 ng/ml DKK1, 2 nM C59, 500 nM XAV or 500 nM IWP4 was added as a Wnt inhibitor to the cells, and the obtained mixture was then cultured for 18 days. Thereafter, the expression levels of Six3 (forebrain marker), Sox1 (neuroectodermal marker), Foxg1 (cerebral cortex-forming factor), Lhx2 (cerebral cortex-forming factor), Emx2 (forebrain back portion marker), CoupTF1 (forebrain back portion marker) and Pax6 (forebrain front portion marker) genes in the cultured cells were measured by a qPCR method (FIG. 2).
The concentration of C59 used as a Wnt inhibitor in the above-described induction method was examined. Specifically, without using C59, or using 2.5 nM, 10 nM and 1 μM C59, the cells were cultured for 18 days. […] The obtained spheres were subjected to immunostaining of using an antibody against Pax6. […] Furthermore, the expression levels of the Foxg1, Lhx2, Emx2 and CoupTF1 genes in the obtained spheres were measured according to a qPCR method (FIG. 4B). As a result, the expression level of CoupTF1 was low and the expression levels of Lhx2 and Foxg1 were high in the case of using 10 nM C59. […]

[4] = 0.1 μM, 0.5 μM and 2 μM LDN193189, 46 days, qPCR, in a concentration-dependent manner
[5] = 500 ng/ml DKK1 as Wnt inhibitor, cultured for 18 days, qPCR

## O=C1[C@H](Cc2ccc(O)cc2)N2C(=O)CCN(C(=O)NCc3ccccc3)[C@H]2CN1Cc1cccc2ccccc12 [ICG-001]
iPS cells (836B1)
  efficiency of inducing CoupTF1-negative Ctip2-positive cells: significantly low

## c1ccc2c(-c3cnn4cc(-c5ccc(N6CCNCC6)cc5)cnc34)ccnc2c1 [LDN193189, 4-(6-(4-(piperazin-1-yl)phenyl)pyrazolo [1,5-a]pyrimidin-3-yl)quinoline]
[1]
  cell death in spheres: cell death was often found
  cytotoxicity: strongly appeared
[2]; 0.1 μM, 0.5 μM and 2 μM LDN193189, 46 days
  CoupTF1-negative Ctip2-positive cells: obtained in a concentration-dependent manner
[3]; [4]
  expression level of CoupTF1: low
  expression level of Sfrp1: high

## Cc1cc(-c2ncc(CC(=O)Nc3ccc(-c4cnccn4)cn3)cc2C)ccn1 [LGK-974]
iPS cells (836B1)
  efficiency of inducing CoupTF1-negative Ctip2-positive cells: not found a large difference

## SB431542
[2]; 10 μM SB43152 as TGFβ inhibitor, 46 days
  CoupTF1-negative Ctip2-positive cells: obtained

B1: DKK1: DKK1 protein, Wnt inhibitor (human NCBI Accession No. NM_012242), R & D (protein, UniProt O94907 32-266, looked up)
Dickkopf-related protein 1: TLNSVLNSNAIKNLPPPLGGAAGHPGSAVSAAPGILYPGGNKYQTIDNYQPYPCAEDEECGTDEYCASPTRGGDAGVQICLACRKRRKRCMRHAMCCPGNYCKNGICVSSDQNHFRGEIEETITESFGNDHSTLDGYSRRTTLSSKMYHTKGQEGSVCLRSSDCASGLCCARHFWSKICKPVLKEGQVCTKHRRKGSHGLEIFQRCYCGEGLSCRIQKDHHQASNSSRLHTCQRH
[3]; 500 ng/ml DKK1 as Wnt inhibitor, cultured for 18 days
  cells in the back portion of the forebrain induced: a large number
[3]; [5]
  expression level of CoupTF1 (forebrain back portion marker): high
  expression level of Emx2 (forebrain back portion marker): high
